Test system: salmonella of TA1535
Assay: Mutation test (Ames test), plate method
Type: cell-based
Settings: strain TA1535, plate method, under metabolic activity condition, 625 to 10,000 micro gram/plate, maximum number of colonies divided by colonies in control solvent, tested on the TMPTA monomer of each example
Description: One time absorption refinement treatment is effective but multiple time absorption refinement treatments are preferable to improve the removal effect of the impurities. A number of methods for use in the present invention of measuring the safety of the radical polymerizable monomer can be used. Ames test (mutagen test) is employed in the present invention.
Ames test is a test in which germs are used. The strain among salmonellas used in the test is histidine auxotroph (his−), which cannot synthesize histidine. In the test, the number of colonies of recoveries from histidine auxotroph (his−) to (his+) which can synthesize histidine again as a result of a test material reacting with the strain is counted to determine the mutation property of the material.
Currently, among these strains, TA1535, TA1537, TA100, TA98 or WP2uvrA—are generally used. When TA1535 is used, radical polymerizable monomers in the market are frequently positive. Therefore, TA1535 test is employed in the present invention.
“Mutation test in Ordinance on Safety and Hygiene—Guideline and GLP— (published by Japan industrial Safety & Health Association)” is referred to with regard to the specific test method.
A mutation test (Ames test) is employed to check the safety in the present invention.
A plate method is adopted as the test method in the present invention.
TA1535 is used as the strain and the test is conducted under the condition of metabolic activity.
Add 250 mg of dimethylsulfoxide (DIMSO) to 250 mg of a radical polymerizable monomer having at least 3 functional groups with no charge transport structure followed by ultrasonic treatment for one minute to prepare a clear solution for the test.
5 kinds of densities (625 micro gram/plate, 1,250 micro gram/plate, 2,500 micro gram/plate, 5,000 micro gram/plate, and 10,000 micro gram/plate) of the radical polymerizable monomer having at least 3 functional groups with no charge transport structure are used. Among these, the quotient (referred to as “colony increase multiple” in the present invention) obtained by dividing the maximum number of the colonies with the number of colonies in the control solvent is used for comparison. The smaller the quotient, the safer the test sample.

Row | Structure (SMILES) | Colony increase multiple | other results
1 | C=CC(=O)OCC(CC)(COC(=O)C=C)COC(=O)C=C [Ex. 9, trimethylol propane triacrylate] | 2.1 | Colony increase multiple (listed as Example 9): 2.1
2 | C=CC(=O)OCC(CC)(COC(=O)C=C)COC(=O)C=C [Comp. 3, trimethylol propane triacrylate] | 2.7 | Colony increase multiple (listed as Comparative Example 3): 2.7
3 | C=CC(=O)OCC(CC)(COC(=O)C=C)COC(=O)C=C [Comp. 2, trimethylol propane triacrylate] | 2.7 | Colony increase multiple (listed as Comparative Example 2): 2.7
4 | C=CC(=O)OCC(CC)(COC(=O)C=C)COC(=O)C=C [Ex. 5, trimethylol propane triacrylate] | 1.4 | Colony increase multiple (listed as Example 5): 1.4
5 | C=CC(=O)OCC(CC)(COC(=O)C=C)COC(=O)C=C [Comp. 1, trimethylol propane triacrylate] | 3.4 | Colony increase multiple (listed as Comparative Example 1): 3.4
6 | C=CC(=O)OCC(CC)(COC(=O)C=C)COC(=O)C=C [Ex. 6, trimethylol propane triacrylate] | 2.5 | Colony increase multiple (listed as Example 6): 2.5
7 | C=CC(=O)OCC(CC)(COC(=O)C=C)COC(=O)C=C [Ex. 1, trimethylol propane triacrylate] | 1.2 | Colony increase multiple (listed as Example 1): 1.2
8 | C=CC(=O)OCC(CC)(COC(=O)C=C)COC(=O)C=C [Ex. 10, trimethylol propane triacrylate] | 1.9 | Colony increase multiple (listed as Example 10): 1.9
9 | C=CC(=O)OCC(CC)(COC(=O)C=C)COC(=O)C=C [Ex. 8, trimethylol propane triacrylate] | 2.6 | Colony increase multiple (listed as Example 8): 2.6
10 | C=CC(=O)OCC(CC)(COC(=O)C=C)COC(=O)C=C [Ex. 12, trimethylol propane triacrylate] | 1.4 | Colony increase multiple (listed as Example 12): 1.4
11 | C=CC(=O)OCC(CC)(COC(=O)C=C)COC(=O)C=C [Ex. 11, trimethylol propane triacrylate] | 1.4 | Colony increase multiple (listed as Example 11): 1.4
12 | C=CC(=O)OCC(CC)(COC(=O)C=C)COC(=O)C=C [Ex. 7, trimethylol propane triacrylate] | 1.9 | Colony increase multiple (listed as Example 7): 1.9
13 | C=CC(=O)OCC(CC)(COC(=O)C=C)COC(=O)C=C [Ex. 2, trimethylol propane triacrylate] | 1.1 | Colony increase multiple (listed as Example 2): 1.1
14 | C=CC(=O)OCC(CC)(COC(=O)C=C)COC(=O)C=C [Ex. 4, trimethylol propane triacrylate] | 1.1 | Colony increase multiple (listed as Example 4): 1.1
15 | C=CC(=O)OCC(CC)(COC(=O)C=C)COC(=O)C=C [Ex. 3, trimethylol propane triacrylate] | 1.2 | Colony increase multiple (listed as Example 3): 1.2
